Non-standard residues stand in square brackets, D forms with d. *: point of attachment. Palmitoyl = CCCCCCCCCCCCCCCC(=O)*; Nle = CCCC[C@H](N)C(=O)O
What was measured:
[1] = test system: Human keratinocytes (HaCaT); assay: Cell proliferation assay (MTT) in HaCaT cells; assay type: cell-based; conditions: FIG. 6; for cell activity / proliferation of HaCaT keratinocytes: 72 h, at low concentrations (tested 6.25, 12.5, 25 ppm)
Excerpt: Thiazolyl blue (MTT), dimethyl sulfoxide (DMSO), DMEM culture medium, fetal bovine serum, and PBS.
(§1) Human keratinocytes (HaCaT) were purchased from the Kunming Cell Bank of China Center for Type Culture Collection under the Chinese Academy of Sciences.
Polypeptide group: Peptide (4), peptide (9), peptide (13) and peptide (20). The test concentrations of all the above samples were 6.25 ppm, 12.5 ppm and 25 ppm.
(§2) Blank control group: PBS.
Positive control group: 2% DMSO.
Cells in good exponential growth phase were taken. A 0.25% trypsin digestion solution was added so that digestion allowed the adherent cells to fall off, counting 1 to 4×10^5 cells/mL, which were prepared into a cell suspension.
The cell suspension was inoculated into a 96-well plate with 200 μL/well, and cultured in a constant-temperature CO2 incubator for 24 h.
After changing the medium, samples of the polypeptide groups, the blank control group and the positive control group were added at 20 μL/well respectively, and incubated in a 5% CO2 incubator at 37° C. for 72 h.
20 μL of 5 mg/mL MTT was added to each well and the incubation was continued in the 5% CO2 incubator at 37° C. for 4 h. The original solution was removed and 150 μL/well of DMSO was added. After shaking the plate on a plate shaker for 5 min, a microplate reader was used to determine the OD value of each well at a wavelength of 570 nm, and the cell viability was calculated.
Cell viability=[OD (test sample well)−OD (zero adjustment well)]/[OD (blank control well)−OD (zero adjustment well)]×100%
The MTT assay is a method of detecting cell survival and growth. The measured OD values are directly proportional to cell viability. The higher the cell viability, the larger the OD value.

filaggrin (FLG) = assay: Filaggrin expression experiment (UV-irradiated HaCaT cells); assay type: cell-based, Human; conditions: 80 mJ/cm^2 UV, 24 h, 10-50 ppm, compared with UV group, fluorescence staining, FIG. 10
Description: as §1
Polypeptide group: Peptide (4), peptide (9), peptide (13) and peptide (20). The test concentrations of all the above samples were 10 ppm and 50 ppm.
as §2
UV group: UV radiation with PBS.
The frozen HaCaT cells were cultured and passaged at a ratio of 1:2 to about the 5th generation, and the cells in better growth were selected as experiment subjects. The cell suspension was taken and inoculated into a 96-well plate at 10^4 cells/well, complete culture medium was added, and the mixture was cultured in a 5% CO2 incubator at 37° C. for 24 h. A UV photoaging model was established when the cells reached approximately 80% confluence. […]
After incubation, the cells were digested, grown on a cell climbing slice for 12 hours and then fixed. The cells were stained using a filaggrin (FLG) detection kit and observed under a fluorescence microscope after staining.
Filaggrin (FLG) is an important molecule that links keratin fibers in the stratum corneum of human skin. […] In this experiment, 80 mJ/cm^2 UV energy was selected for radiation to establish a skin stratum corneum cell model, and the effect of the sample on FLG expression was detected to analyze whether the peptides of the present invention can promote FLG expression.

hyaluronidase = assay: Hyaluronidase inhibition experiment; assay type: biochemical; conditions: FIG. 11; for hyaluronidase inhibition rate: at 100 ppm; for inhibition of hyaluronidase activity: at the tested concentrations (50 ppm and 100 ppm)
Excerpt: Spectrophotometer, phosphate buffered saline (PBS), hyaluronic acid, and hyaluronidase.
Peptide (13) and peptide (14). The test concentrations of all the above samples were 50 ppm and 100 ppm.
The experiment was divided into four groups: blank control group A1 (PBS+hyaluronidase), enzyme-free blank control group A2 (PBS+solvent without hyaluronidase), sample group B1 (samples to be tested+hyaluronidase), and enzyme-free sample group B2 (samples to be tested+solvent without hyaluronidase). The total reaction volume of each group was the same.
According to the grouping, 100 μL of CaCl2) (2.5 mmol/L) was mixed with 500 μL of hyaluronidase (500 U/mL) or solvent without hyaluronidase, and 20 μL of the mixture was taken and shaken in a 37° C. constant temperature gas bath oscillator for 20 min. The blank control group was added with 20 μL of PBS and shaken in a 37° C. constant temperature gas bath oscillator for 20 min. The sample groups were added with 20 μL of samples at different concentrations and shaken in a 37° C. constant temperature gas bath oscillator for 20 min. The above groups were added with 40 μL of hyaluronic acid and shaken in a 37° C. constant temperature gas bath oscillator for 40 min. 10 μL of acetylacetone solution was added and shaken in a 50° C. constant temperature gas bath oscillator for 10 min, then placed in an oven at 75° C. for 40 min and at 50° C. for 10 min. After the reaction was completed and cooled, the plastic wrap was quickly removed to avoid the generation of water vapor. Then 100 μL of 96% anhydrous ethanol and 10 μL of Ehrlich reagent were added, and the absorbances were measured at 492 nm.
Hyaluronidase can decompose hyaluronic acid in the body, converting it into low-molecular-weight acidic irritant, thereby causing the release of histamine and inducing sensitive symptoms in the body. In addition, the reduction of hyaluronic acid will destroy the skin barrier function, leading to the loss of moisture inside the skin. Therefore, inhibiting the activity of hyaluronidase can achieve the effects of soothing, moisturizing and repairing the skin barrier.

hyaluronic acid = assay: Determination of hyaluronic acid content in HaCaT cells; assay type: cell-based, Human; conditions: 12.5 ppm, 48 h, compared with blank control, FIG. 9
Description: as §1
Polypeptide group: Peptide (4), peptide (13) and peptide (20). The test concentrations of all the above samples were 12.5 ppm.
as §2
A bottle of HaCaT cells in good exponential growth phase was taken. A 0.25% trypsin digestion solution was added so that digestion allowed the adherent cells to fall off, counting 1 to 4×10^6 cells/mL, which were prepared into a cell suspension.
The cells were inoculated into a 6-well plate at 10^5 cells/well, and grouped when the cells reached approximately 80% confluence. […]
After completion of the culture, cells were scraped off using a cell scraper, and 200 μL of RIPA lysis buffer was added to extract proteins. […] The total protein concentration was quantified to 1 mg/mL using the BCA method. […] The OD value of each well was measured in sequence at 570 nm using a microplate reader within 15 min.
Hyaluronic acid is one of the main matrix ingredients of the human skin epidermis and an important component of the skin barrier. […] This experiment measured the effect of the peptide of the present invention on the hyaluronic acid content to determine whether the peptide of the invention can increase the hyaluronic acid content and thus play a role in moisturizing and anti-aging repair.

Molecule | hyaluronidase inhibition rate (hyaluronidase) | inhibition of hyaluronidase activity (hyaluronidase) | cell activity / proliferation of HaCaT keratinocytes [1] | hyaluronic acid content (hyaluronic acid) | further results
C[S+](C)[O-] [2% DMSO, dimethyl sulfoxide, reference compound] |  |  |  |  | toxic effect on HaCaT cells (cell viability) ([1]; 72 h incubation, peptides at 6.25, 12.5 and 25 ppm, compared with blank control (PBS)): had a toxic effect on HaCaT cells
Palm-Lys-Val-Lys-Leu-Tyr-NH2 (Palmitoyl-KVKLY-NH2; SMILES CCCCCCCCCCCCCCCC(=O)N[C@@H](CCCCN)C(=O)N[C@H](C(=O)N[C@@H](CCCCN)C(=O)N[C@@H](CC(C)C)C(=O)N[C@@H](Cc1ccc(O)cc1)C(N)=O)C(C)C) [peptide (13)] | 49.40% | inhibited the activity of hyaluronidase |  |  | FLG content / FLG expression (filaggrin (FLG)): optimum technical effect
Palm-Lys-Val-Lys-Leu-Tyr-OH (Palmitoyl-KVKLY-OH; SMILES CCCCCCCCCCCCCCCC(=O)N[C@@H](CCCCN)C(=O)N[C@H](C(=O)N[C@@H](CCCCN)C(=O)N[C@@H](CC(C)C)C(=O)N[C@@H](Cc1ccc(O)cc1)C(=O)O)C(C)C) [peptide (14)] | 40.96% | inhibited the activity of hyaluronidase |  |  | 
Palm-Val-Lys-Leu-Tyr-Gly-Ser-NH2 (Palmitoyl-VKLYGS-NH2; SMILES CCCCCCCCCCCCCCCC(=O)N[C@H](C(=O)N[C@@H](CCCCN)C(=O)N[C@@H](CC(C)C)C(=O)N[C@@H](Cc1ccc(O)cc1)C(=O)NCC(=O)N[C@@H](CO)C(N)=O)C(C)C) [peptide (9)] |  |  | significantly improve cell activity |  | 
Palmitoyl-G[Nle]KLY-NH2 [peptide (4)] |  |  |  | more superior technical effects | 
Palmitoyl-G[Nle]RLY-NH2 [peptide (20)] |  |  | significantly improve cell activity | more superior technical effects | 

Source: US20260049103A1, “PEPTIDE, AND COMPOSITION THEREOF AND USE THEREOF” (WINKEY TECHNOLOGY USA INC, priority 2023, published 2026)
